IC50 data for four compounds are collected here from ChEMBL document CHEMBL1145656, “Production of cytotoxic canthin-6-one alkaloids by Ailanthus altissima plant cell cultures” (J Nat Prod, 1983).

The IC50 is the midpoint of a concentration-inhibition curve. A higher IC50 goes with a need for much substance.

Values after ≈ are worked out from the molar mass of the structure shown.

The experiment is described as follows: Cytotoxicity against GPK cells by [3H]thymidine incorporation assay. Type of experiment: functional, cell-based. To be noted: Cavia porcellus. (Uptake of a labelled nucleoside into DNA is a usual measure of proliferation.)
Compound `O=c1ccc2c3c(cc[n+]2[O-])c2ccccc2n13` gave an IC50 of 4.21 µg/mL (≈ 17.8 µM).

In turn, `COc1cnc2ccc(=O)n3c4ccccc4c1c23` yielded a concentration for half-maximal inhibition (IC50) of 5.76 µg/mL (≈ 23 µM).

The compound `COc1cc2nccc3c4ccccc4n(c1=O)c23` [5-METHOXYCANTHINONE] registered an IC50 of 5.44 µg/mL (≈ 21.7 µM).

With `O=c1ccc2nccc3c4ccccc4n1c23` [CANTHIN-6-ONE], the IC50 stood at 1.11 µg/mL (≈ 5.04 µM).
